tested on: pig epidermis; test: Rehydration of impregnated pig epidermis; conditions: dried 24 h at 30% r.h., then incubated 24 h at 90% r.h.; 10% solution; improvement vs blank value
Description: (§1) The favorable action of the compounds, which are to be used in accordance with the invention, with respect to their capacity for the absorption and retention of water, was established by means of the test methods described hereinafter. A process for determining the equilibrium dampness which is indicative of the water retention capacity, and the determination of the water retention, rehydration and elasticity of impregnated pig epidermis are described in these tests.
(§2) Immediately after the pigs have been killed, the skin bristles are cut off by means of a shearing machine (shearing head 0.1 mm). The pigs are soaked for approximately 3 to 5 minutes in warm water of 60° C., the epidermis is subsequently peeled off and stored at -20° C. until it is used.
(§3) Stamped out pieces of epidermis (1×2 cm) were soaked for two hours in a 10% solution of the test substance. Excess moisture was then removed under standardized conditions by means of a small press, and the pieces were dried for 24 hours, hanging freely between 2 clamps in a 100 ml Erlenmeyer flask at 23° C., both at 30% relative humidity and 50% relative humidity (set by mixtures of sulfuric acid and water). The drying out of the impregnated test pieces to X% of the initial weight was compared with the corresponding value of the epidermis which had been soaked only in water (blank value). In Table I, the improvement in the water retention and in the rehydration as compared with the blank value is given in Δ% H2 O. The deviations in each double test amounted to a maximum of ±2 absolute units. The test was repeated if greater deviations occurred. The rehydration was determined analogously by drying the pig epidermis, which had been impregnated and from which the excess moisture had been removed, for 24 hours at 30% relative humidity, and by subsequent incubation for 24 hours at 90% relative humidity.

Structure (SMILES)	Rehydration, Δ% water absorption at 90% r.h.
CC(O)CNC(=O)OCCO (stereo not drawn) [Product B, N-(2-hydroxypropyl)-carbamide acid-2-hydroxyethyl ester]	70 Δ% H2O
O=C1OCCN1CCO [Product I, N-(2-hydroxyethyl)-oxazolidine-2-one]	16 Δ% H2O
O=C(NCCO)OCCO [Product A, N-(2-hydroxyethyl)-carbamide acid-2-hydroxyethyl ester]	62 Δ% H2O
O=C1NC(CO)(CO)CO1 [Product H, 4,4-bis-hydroxymethyl-oxazolidine-2-one]	10 Δ% H2O
CC1(C)COC(=O)N1 [Product F, 4,4-Dimethyl-oxazolidine-2-one]	5 Δ% H2O

tested on: not listed separately; test: Determination of the equilibrium dampness; assay type: physicochemical; conditions: 24 hours at 23° C.; relative humidity at which neither expulsion nor retention of water is effected; lower is better
Description: as §1
The substances (approximately 300 to 500 mg) to be tested were moistened with a defined quantity of water and were exposed for 24 hours at 23° C. to various relative atmospheric humidities (1%, 30%, 47%, 65%, 89% and 100% relative humidity). The quantity of water absorbed or desorbed was determined gravimetrically and plotted on a graph. The relative humidity at which neither expulsion nor retention of water is effected can be determined from the resultant curves. This value, which is designated as the "equilibrium dampness", is a measure of the water retention capacity of a substance. The lower the value, the more positive is the assessment of the product. Furthermore, the hygroscopicity of the substance can be read from the slope of the curve.

Structure (SMILES)	Equilibrium dampness
CC(O)CNC(=O)OCCO (stereo not drawn) [Product B, N-(2-hydroxypropyl)-carbamide acid-2-hydroxyethyl ester]	58 % r.h.
O=C1OCCN1CCO [Product I, N-(2-hydroxyethyl)-oxazolidine-2-one]	68 % r.h.
O=C(NCCO)OCCO [Product A, N-(2-hydroxyethyl)-carbamide acid-2-hydroxyethyl ester]	58 % r.h.
O=C1NC(CO)(CO)CO1 [Product H, 4,4-bis-hydroxymethyl-oxazolidine-2-one]	76 % r.h.
CC1(C)COC(=O)N1 [Product F, 4,4-Dimethyl-oxazolidine-2-one]	83 % r.h.

tested on: pig epidermis; test: Elasticity measurements made on the impregnated pig epidermis; conditions: 75% r.h., 24 hours; soaked 2 h in 10% aqueous solution; blank value 0
Description: A process for determining the equilibrium dampness which is indicative of the water retention capacity, and the determination of the water retention, rehydration and elasticity of impregnated pig epidermis are described in these tests.
as §2
Stamped out pieces of pig epidermis (1×6 cm) were soaked for two hours in a 10% aqueous solution of the substance which was to be tested, and excess moisture was removed from these pieces under standarized conditions. […] The amount of stretch in mm, measured in the Hooke range at a load between 5 to 30 pund, was determined as a measure of the elasticity.

Structure (SMILES)	mm stretch with between 5 and 30 pound loading at 75% r.h.
CC(O)CNC(=O)OCCO (stereo not drawn) [Product B, N-(2-hydroxypropyl)-carbamide acid-2-hydroxyethyl ester]	1.0 mm
O=C1OCCN1CCO [Product I, N-(2-hydroxyethyl)-oxazolidine-2-one]	0.8 mm
O=C(NCCO)OCCO [Product A, N-(2-hydroxyethyl)-carbamide acid-2-hydroxyethyl ester]	1.1 mm
O=C1NC(CO)(CO)CO1 [Product H, 4,4-bis-hydroxymethyl-oxazolidine-2-one]	0.5 mm
CC1(C)COC(=O)N1 [Product F, 4,4-Dimethyl-oxazolidine-2-one]	0.4 mm

same assay, conditions: 90% r.h., 24 hours; soaked 2 h in 10% aqueous solution; blank value 0.3-0.5

Structure (SMILES)	mm stretch with between 5 and 30 pound loading at 90% r.h.
CC(O)CNC(=O)OCCO (stereo not drawn) [Product B, N-(2-hydroxypropyl)-carbamide acid-2-hydroxyethyl ester]	6.0 mm
O=C1OCCN1CCO [Product I, N-(2-hydroxyethyl)-oxazolidine-2-one]	6.0 mm
O=C(NCCO)OCCO [Product A, N-(2-hydroxyethyl)-carbamide acid-2-hydroxyethyl ester]	5.5 mm
O=C1NC(CO)(CO)CO1 [Product H, 4,4-bis-hydroxymethyl-oxazolidine-2-one]	2.6 mm
CC1(C)COC(=O)N1 [Product F, 4,4-Dimethyl-oxazolidine-2-one]	7.4 mm

tested on: pig epidermis; test: Water retention of impregnated pig epidermis; conditions: 30% r.h., 24 hours, 23° C.; soaked 2 h in 10% solution; improvement vs blank value (water only)
Description: as §1, §2, §3

Structure (SMILES)	Water Retention, % H2O after drying out at 30% r.h.
CC(O)CNC(=O)OCCO (stereo not drawn) [Product B, N-(2-hydroxypropyl)-carbamide acid-2-hydroxyethyl ester]	23 Δ% H2O
O=C1OCCN1CCO [Product I, N-(2-hydroxyethyl)-oxazolidine-2-one]	10 Δ% H2O
O=C(NCCO)OCCO [Product A, N-(2-hydroxyethyl)-carbamide acid-2-hydroxyethyl ester]	25 Δ% H2O
O=C1NC(CO)(CO)CO1 [Product H, 4,4-bis-hydroxymethyl-oxazolidine-2-one]	12 Δ% H2O
CC1(C)COC(=O)N1 [Product F, 4,4-Dimethyl-oxazolidine-2-one]	5 Δ% H2O

same assay, conditions: 50% r.h., 24 hours, 23° C.; soaked 2 h in 10% solution; improvement vs blank value (water only)

Structure (SMILES)	Water Retention, % H2O after drying out at 50% r.h.
CC(O)CNC(=O)OCCO (stereo not drawn) [Product B, N-(2-hydroxypropyl)-carbamide acid-2-hydroxyethyl ester]	22 Δ% H2O
O=C1OCCN1CCO [Product I, N-(2-hydroxyethyl)-oxazolidine-2-one]	16 Δ% H2O
O=C(NCCO)OCCO [Product A, N-(2-hydroxyethyl)-carbamide acid-2-hydroxyethyl ester]	26 Δ% H2O
O=C1NC(CO)(CO)CO1 [Product H, 4,4-bis-hydroxymethyl-oxazolidine-2-one]	15 Δ% H2O
CC1(C)COC(=O)N1 [Product F, 4,4-Dimethyl-oxazolidine-2-one]	7 Δ% H2O

Source: patent US4382765A, “Method of moisturizing the skin with carbamide acid esters” (Henkel Kommanditgesellschaft auf Aktien, priority 1977, dated 1983)
